Patent US10100064B2, “Purine inhibitors of human phosphatidylinositol 3-kinase delta” (Merck Sharp & Dohme Corp., priority 2014, dated 2018)

Tests used:
PI3Kalpha = target: T1, PI3Kalpha (Homo sapiens, UniProt P42336); test: HTRF PI3K biochemical assay, alpha isoform (selectivity versus delta); settings: relative ratio PI3K-alpha IC50 value / PI3K-delta IC50 value
T1 construct: purchased Upstate; Millipore 14-602
Description: (§1) HTRF PI3K Biochemical Assay to Measure Intrinsic Potency of Compound Inhibitors
(§2) The PI3-Kinase biochemical assays were developed to measure the intrinsic potency and compound dependent inhibition of the alpha, beta, delta, and gamma PI3K isoform enzymes. This assay was developed and further optimized from a kit produced by Upstate (Millipore catalog #33-047) and has been configured for HTS and SAR screening. Briefly, this procedure exploits the exquisite specificity and high affinity binding of […] phosphatidyl(3,4,5)triphosphate (PIP3) to the GRP1 pleckstrin homology (PH) domain to generate the signal. In the absence of PIP3, an HTRF (Homogeneous Time-Resolved Fluorescence energy transfer) complex is formed consisting of europium (Eu)-labeled anti-GST, GSTtagged GRP1-PH domain, biotin-PIP3 and streptavidin conjugated APC. The native PIP3 produced by PI3-Kinase activity disrupts in a competitive manner the biotin-PIP3 from the PH domain, resulting in the loss of energy transfer (HTRF complex) and a decrease in the signal. The format of this assay is the same for all 4 isoforms of PI3K; the differences lie in the concentration of enzyme used to achieve robust assay window. The alpha, beta, and delta assays are run at 0.5, 1, and 0.3 nM enzymes and the gamma assay is run at 5 nM enzyme. The ATP concentration is 100 uM in the alpha, beta, and delta assays and 50 uM ATP in the gamma assay. All reactions are run at 5 uM PIP2.
(§3) Compounds are serially diluted (3-fold in 100% DMSO) across a 384-well polypropylene source plated from column 3 to column 12 and column 13 to column 22, to yield 10 concentration dose response for each test compound. Columns 1, 2, 23 and 24 contain either only DMSO or pharmacological known control inhibitor. Once titrations are made, 2.5 nL of the compounds on 384 well plates are reformatted and transferred by acoustic dispense in quadruplicates to a 1536 assay plate (Greiner) to assay across all four PI3K isoform enzymes.
(§4) The PI3-Kinase biochemical assay was optimized using the HTRF kit provided by Upstate (Millipore). The assay kit contains six reagents: 1) 4× Reaction Buffer; 2) native PIP2 (substrate); 3) Stop (EDTA); 4) Detection Mix A (Streptavidin-APC); 5) Detection Mix B (Eu-labeled Anti-GST plus GST-tagged PH-domain); 6) Detection Mix C. In addition, the following items were obtained or purchased; PI3Kinase (alpha 14-602, beta 14-603, gamma 14-558 and delta 14-604 from Upstate; Millipore), dithiothreitol (Sigma, D-5545), Adenosine-5′ triphosphate (InVitrogen, Cat#AS001A), native PIP3 (PI(3,4,5)P3, diC8, H^+, CELLSIGNALS, INC. Cat #907) DMSO (Sigma, 472301).
(§5) PI3Kinase Reaction Buffer is prepared by dilution the stock 1:4 with de-ionized water. DTT, PIP2 and Biotin-PIP3 were added to 1536 assay plate at a final concentration of 5 mM, […] 25 nM on the day of use. Enzyme addition and compound pre-incubation are initiated by the addition of 1.25 ul of PI3K (at twice its final concentration) in the 1× reaction buffer to all wells using a BioRaptor. Plates are incubated at room temperature for 15 minutes. Reactions are initiated by addition of 1.25 ul of 2× substrate solution (PIP2 and ATP in 1× reaction buffer) using BioRaptor. Plates are incubated in humidified chamber at room temperature for one hour. Reactions are quenched by addition of 0.625 uL of stop solution to all wells using the BioRaptor. The quenched reactions are then processed to detect product formation by adding 0.625 uL of Detection Solution to all wells using the BioRaptor (Detection mix C, Detection Mix A, and Detection Mix B combined together in an 18:1:1 ratio prepared 2 hours prior to use). Following a one hour incubation in the dark, the HTRF signal is measured on the Envision plate reader set for 330 nm excitation and dual emission detection at […]. […]

PI3Kdelta = target: T2, PI3Kdelta (Homo sapiens, UniProt O00329); test: HTRF PI3K biochemical assay, delta isoform; settings: 0.3 nM enzyme, 100 uM ATP, 5 uM PIP2, form screened (Neutral or TFA salt) given per compound
T2 construct: purchased Upstate; Millipore 14-604
Description: as §1, §2, §3, §4, §5

T1 sequence (P42336 whole entry, canonical isoform): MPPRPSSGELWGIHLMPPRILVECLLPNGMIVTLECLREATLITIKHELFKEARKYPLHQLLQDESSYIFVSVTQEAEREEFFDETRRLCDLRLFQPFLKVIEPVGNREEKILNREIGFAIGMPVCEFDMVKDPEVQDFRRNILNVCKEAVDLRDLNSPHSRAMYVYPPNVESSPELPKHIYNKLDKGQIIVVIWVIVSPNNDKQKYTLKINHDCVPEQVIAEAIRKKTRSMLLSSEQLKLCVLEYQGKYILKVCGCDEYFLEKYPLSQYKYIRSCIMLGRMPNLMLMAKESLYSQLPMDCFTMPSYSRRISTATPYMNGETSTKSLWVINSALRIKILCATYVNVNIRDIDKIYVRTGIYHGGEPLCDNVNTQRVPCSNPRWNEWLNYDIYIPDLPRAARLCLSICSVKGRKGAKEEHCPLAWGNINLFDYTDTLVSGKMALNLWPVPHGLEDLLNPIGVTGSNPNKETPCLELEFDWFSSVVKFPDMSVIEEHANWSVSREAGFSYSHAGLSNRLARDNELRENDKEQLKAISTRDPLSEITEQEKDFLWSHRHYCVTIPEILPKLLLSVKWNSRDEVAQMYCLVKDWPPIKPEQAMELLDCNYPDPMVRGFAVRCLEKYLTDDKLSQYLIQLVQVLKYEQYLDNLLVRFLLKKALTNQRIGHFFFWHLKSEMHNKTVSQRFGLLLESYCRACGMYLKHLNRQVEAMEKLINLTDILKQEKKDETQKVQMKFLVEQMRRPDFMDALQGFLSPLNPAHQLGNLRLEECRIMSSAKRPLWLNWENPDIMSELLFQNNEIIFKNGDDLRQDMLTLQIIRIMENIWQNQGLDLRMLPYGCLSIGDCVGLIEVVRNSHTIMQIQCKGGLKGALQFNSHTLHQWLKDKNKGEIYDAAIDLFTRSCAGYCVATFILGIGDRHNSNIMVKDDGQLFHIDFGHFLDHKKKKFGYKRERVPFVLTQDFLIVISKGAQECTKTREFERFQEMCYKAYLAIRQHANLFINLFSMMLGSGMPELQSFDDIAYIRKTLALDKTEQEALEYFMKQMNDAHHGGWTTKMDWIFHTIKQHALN
T1 sequence (P27986 whole entry partner, canonical isoform): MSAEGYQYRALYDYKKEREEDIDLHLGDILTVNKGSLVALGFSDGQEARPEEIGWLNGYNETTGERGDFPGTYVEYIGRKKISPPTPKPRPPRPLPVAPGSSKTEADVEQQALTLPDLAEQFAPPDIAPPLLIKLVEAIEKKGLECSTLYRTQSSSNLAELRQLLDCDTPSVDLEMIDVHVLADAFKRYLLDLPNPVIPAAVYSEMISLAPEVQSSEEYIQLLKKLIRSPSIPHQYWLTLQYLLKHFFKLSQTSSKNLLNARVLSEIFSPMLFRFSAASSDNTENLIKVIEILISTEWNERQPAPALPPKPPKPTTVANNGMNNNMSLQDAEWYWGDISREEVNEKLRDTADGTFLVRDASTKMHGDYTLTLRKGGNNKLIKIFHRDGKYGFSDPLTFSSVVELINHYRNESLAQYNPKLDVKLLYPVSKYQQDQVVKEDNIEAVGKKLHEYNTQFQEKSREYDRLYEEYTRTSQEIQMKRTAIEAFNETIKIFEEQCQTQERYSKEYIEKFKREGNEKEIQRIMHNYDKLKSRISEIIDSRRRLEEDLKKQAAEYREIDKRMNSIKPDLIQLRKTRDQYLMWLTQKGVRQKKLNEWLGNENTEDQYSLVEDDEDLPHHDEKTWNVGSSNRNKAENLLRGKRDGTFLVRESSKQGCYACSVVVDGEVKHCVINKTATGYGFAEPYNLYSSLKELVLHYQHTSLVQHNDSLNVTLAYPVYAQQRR
T2 sequence (O00329 whole entry, canonical isoform): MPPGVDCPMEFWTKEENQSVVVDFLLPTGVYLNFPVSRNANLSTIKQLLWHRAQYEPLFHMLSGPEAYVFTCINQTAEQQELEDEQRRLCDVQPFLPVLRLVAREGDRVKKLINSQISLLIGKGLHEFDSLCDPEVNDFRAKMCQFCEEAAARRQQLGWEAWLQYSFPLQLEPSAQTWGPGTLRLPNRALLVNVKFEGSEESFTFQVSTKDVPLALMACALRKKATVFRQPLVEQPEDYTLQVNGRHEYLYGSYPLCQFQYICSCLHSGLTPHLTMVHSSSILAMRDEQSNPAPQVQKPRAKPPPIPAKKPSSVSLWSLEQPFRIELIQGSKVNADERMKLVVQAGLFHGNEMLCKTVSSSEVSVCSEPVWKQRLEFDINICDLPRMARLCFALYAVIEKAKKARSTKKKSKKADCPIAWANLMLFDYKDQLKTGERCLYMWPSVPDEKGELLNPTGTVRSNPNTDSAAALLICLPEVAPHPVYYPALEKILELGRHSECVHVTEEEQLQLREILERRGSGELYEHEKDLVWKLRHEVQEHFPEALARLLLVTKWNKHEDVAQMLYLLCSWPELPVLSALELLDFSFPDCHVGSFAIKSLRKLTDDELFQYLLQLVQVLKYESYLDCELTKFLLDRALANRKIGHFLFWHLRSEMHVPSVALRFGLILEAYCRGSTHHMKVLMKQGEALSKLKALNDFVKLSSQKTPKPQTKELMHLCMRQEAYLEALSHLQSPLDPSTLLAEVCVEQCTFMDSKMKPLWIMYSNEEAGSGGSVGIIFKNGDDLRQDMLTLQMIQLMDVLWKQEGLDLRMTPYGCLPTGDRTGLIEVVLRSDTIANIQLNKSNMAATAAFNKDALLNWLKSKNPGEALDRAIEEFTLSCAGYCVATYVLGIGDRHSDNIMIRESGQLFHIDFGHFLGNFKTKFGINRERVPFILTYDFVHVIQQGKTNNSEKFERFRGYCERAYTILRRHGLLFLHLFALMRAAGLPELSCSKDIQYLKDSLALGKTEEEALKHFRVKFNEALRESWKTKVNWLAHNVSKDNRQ
T2 sequence (P27986 whole entry partner, canonical isoform): as the sequence (P27986 whole entry partner, canonical isoform) above

Selectivity versus PI3Kalpha (PI3Kalpha) | IC50 (PI3Kdelta) | Compound
>10 | 2.3 nM | CCOC(=O)n1nc(C(C)C)c2c1CCC(Nc1ncnc3c1nc(-c1cnc(C)nc1)n3CC)C2 (racemic) [Compound 2-17, (S and R)-ethyl 5-{[9-ethyl-8-(2-methylpyrimidin-5-yl)-9H-purin-6-yl]amino}-3-(1-methylethyl)-4,5,6,7-tetrahydro-1H-indazole-1-carboxylate]
>10 | < 1 nM | CCn1c(-c2cnc(OC)c(C)c2)nc2c(NC3CCc4nnc(C5CC5)n4C3)ncnc21 (racemic) [Compound 1-15, (S and R)-N-(3-cyclopropyl-5,6,7,8-tetrahydro[1,2,4]triazolo[4,3-a]pyridin-6-yl)-9-ethyl-8-(6-methoxy-5-methylpyridin-3-yl)-9H-purin-6-amine]
>10 | 3.3 nM | CCn1c(-c2ccc(C(F)(F)F)nc2)nc2c(NC3CCc4ncn(C5CC5)c4C3)ncnc21 (single isomer, unassigned) [Compound 5-2, (S or R)-N-(1-cyclopropyl-4,5,6,7-tetrahydro-1H-benzimidazol-6-yl)-9-ethyl-8-[6-(trifluoromethyl)pyridin-3-yl]-9H-purin-6-amine]
>10 | < 1 nM | CCn1c(-c2cnn(-c3ccccc3)c2)nc2c(NC3CCc4nnc(C5CC5)n4C3)ncnc21 (racemic) [Compound 1-10, (S and R)-N-(3-cyclopropyl-5,6,7,8-tetrahydro[1,2,4]triazolo[4,3-a]pyridin-6-yl)-9-ethyl-8-(1-phenyl-1H-pyrazol-4-yl)-9H-purin-6-amine]
>10 | 1.8 nM | CCn1c(-c2cnc(C)nc2)nc2c(NC3CCc4[nH]nc(C(C)C)c4C3)ncnc21 (single isomer, unassigned) [Compound 2-4, (S or R)-9-ethyl-N-[3-(1-methylethyl)-4,5,6,7-tetrahydro-1H-indazol-5-yl]-8-(2-methylpyrimidin-5-yl)-9H-purin-6-amine]
>10 | 4.2 nM | CCn1c(-c2cnc(C)nc2)nc2c(NC3CCc4ncn(C(C)C)c4C3)ncnc21 (single isomer, unassigned) [Compound 5-15, (S or R)-9-ethyl-N-[1-(1-methylethyl)-4,5,6,7-tetrahydro-1H-benzimidazol-6-yl]-8-(2-methylpyrimidin-5-yl)-9H-purin-6-amine]
>10 | 20 nM | CCn1c(-c2cnc(C)nc2)nc2c(NC3CCc4c(c(C(C)C)nn4C(=O)CN(C)C)C3)ncnc21 (racemic) [Compound 2-14, (S and R)-N-{1-[(dimethylamino)acetyl]-3-(1-methylethyl)-4,5,6,7-tetrahydro-1H-indazol-5-yl}-9-ethyl-8-(2-methylpyrimidin-5-yl)-9H-purin-6-amine]
>10 | 11 nM | CCn1c(-c2cnc(C)nc2)nc2c(NC3CCc4c(c(C(C)C)nn4-c4ccccn4)C3)ncnc21 (racemic) [Compound 2-22, (S and R)-9-ethyl-N-[3-(1-methylethyl)-1-pyridin-2-yl-4,5,6,7-tetrahydro-1H-indazol-5-yl]-8-(2-methylpyrimidin-5-yl)-9H-purin-6-amine]
>10 | 5.7 nM | CCn1c(-c2cnc(C)nc2)nc2c(NC3CCc4ncn(C(C)C)c4C3C)ncnc21 (single isomer, unassigned) [Compound 5-21, 9-ethyl-N-[((6S, 7S) or (6R, 7R))-7-methyl-1-(1-methylethyl)-4,5,6,7-tetrahydro-1H-benzimidazol-6-yl]-8-(2-methylpyrimidin-5-yl)-9H-purin-6-amine]
>10 | 19 nM | CCn1c(-c2cnc(C)nc2)nc2c(OC3CCc4nnc(C5CCC5)n4C3)ncnc21 (single isomer, unassigned) [Compound 1-35, (S or R)-6-{[3-cyclobutyl-5,6,7,8-tetrahydro[1,2,4]triazolo[4,3-a]pyridin-6-yl]oxy}-9-ethyl-8-(2-methylpyrimidin-5-yl)-9H-purine]
>10 | 10 nM | CCn1c(-c2cnc(C)nc2)nc2c(NC3CCn4cnc(C(C)C)c4C3)ncnc21 (single isomer, unassigned) [Compound 6-1, (S or R)-9-ethyl-N-[1-(1-methylethyl)-5,6,7,8-tetrahydroimidazo[1,5-a]pyridin-7-yl]-8-(2-methylpyrimidin-5-yl)-9H-purin-6-amine]
>10 | 25 nM | CCc1nn(CC)c2c1CC(Oc1ncnc3c1nc(-c1cnc(C)nc1)n3CC)CC2 (racemic) [Compound 2-27, (S and R)-6-[(1,3-diethyl-4,5,6,7-tetrahydro-1H-indazol-5-yl)oxy]-9-ethyl-8-(2-methylpyrimidin-5-yl)-9H-purine]
>10 | 31 nM | CCn1c(-c2ccc(C(F)(F)F)nc2)nc2c(NC3CCc4nnc(C(C)C)n4C3)ncnc21 (single isomer, unassigned) [Compound 1-19, (S or R)-9-ethyl-N-[3-(1-methylethyl)-5,6,7,8-tetrahydro[1,2,4]triazolo[4,3-a]pyridin-6-yl]-8-(6-(trifluoromethyl)pyridin-3-yl]-9H-purin-6-amine]
>10 | 384 nM | CCn1c(-c2cnc(C)nc2)nc2c(NC3CCc4ncn(C(C)C)c4C3)ncnc21 (single isomer, unassigned) [Compound 5-16, (S or R)-9-ethyl-N-[1-(1-methylethyl)-4,5,6,7-tetrahydro-1H-benzimidazol-6-yl]-8-(2-methylpyrimidin-5-yl)-9H-purin-6-amine]
>10 | 49 nM | CCn1c(-c2ccc(C(F)(F)F)cc2)nc2c(NC3CCc4nnc(C5CC5)n4C3)ncnc21 (single isomer, unassigned) [Compound 1-29, (S or R)-N-(3-cyclopropyl-5,6,7,8-tetrahydro[1,2,4]triazolo[4,3-a]pyridin-6-yl)-9-ethyl-8-[4-(trifluoromethyl)phenyl]-9H-purin-6-amine]
>10 | 2.1 nM | CCn1c(-c2ccc(OC(F)F)nc2)nc2c(NC3CCc4nnc(C5CC5)n4C3)ncnc21 (racemic) [Compound 1-14, (S and R)-N-(3-cyclopropyl-5,6,7,8-tetrahydro[1,2,4]triazolo[4,3-a]pyridin-6-yl)-8-[6-(difluoromethoxy)pyridin-3-yl]-9-ethyl-9H-purin-6-amine]
>10 | 40 nM | CCn1c(-c2cnc(C)nc2)nc2c(NC3CCc4nc(C(F)F)n(C5CC5)c4C3)ncnc21 (single isomer, unassigned) [Compound 5-11, (S or R)-N-[1-cyclopropyl-2-(difluoromethyl)-4,5,6,7-tetrahydro-1H-benzimidazol-6-yl]-9-ethyl-8-(2-methylpyrimidin-5-yl)-9H-purin-6-amine]
>10 | 2.8 nM | CCn1c(-c2cnc(C)nc2)nc2c(NC3CCc4ncc(C(C)C)n4C3)ncnc21 (single isomer, unassigned) [Compound 4-3, (S or R)-9-ethyl-N-[3-(1-methylethyl)-5,6,7,8-tetrahydroimidazo[1,2-a]pyridin-6-yl]-8-(2-methylpyrimidin-5-yl)-9H-purin-6-amine]
